Reference: article PMC9184463, “Structural basis of ligand binding modes of human EAAT2” (Nature Communications, 2022)
Values joined by “and” are separate entries in the source; they are usually repeats but may differ in a detail not shown here. Identical values can stand only once.

Experiments:
wild-type hEAAT2 = target: T1, wild-type hEAAT2 (Homo sapiens, UniProt P43004); assay: whole-cell patch-clamp of hEAAT2-associated anion current, wild-type hEAAT2 in HEK293T cells; assay type: cell-based; details: for WAY-213613-inhibited current, normalized (MEAN): WT
T1 construct: Strep Tag II (N); superfolder GFP (sfGFP) (N); expressed in transfected cells; host or cells: HEK293T
Protocol: (§1) Human embryonic kidney 293T (HEK293T) cells were cultured in Dulbecco’s Modified Eagle Medium (DMEM, Gibco) media supplemented with 15% (v/v) fetal bovine serum (FBS, PAN-Biotech) at 37 °C with 5% CO2. HEK293T cells were grown in the culture dishes (d = 3.5 cm) (Thermo Fisher Scientific) for 24 h and then 1 μg hEAAT2 wild-type and mutant plasmids for per dishes were used to transiently transfect HEK293T using 0.7 μg Lipofectamine 2000 Reagent (Thermo Fisher Scientific). Cells were analyzed using electrophysiological experiments between 24 and 40 h after transfection at room temperature (21–25 °C).
(§2) Electrophysiological experiments were performed as described previously with a minor modification. External buffer contained 140 mM NaCl, 2 mM MgCl2, 2 mM CaCl2, and 10 mM HEPES (pH = 7.4 with NaOH and osmolarity of ∼310 mosmol L^−1) and while internal pipette solution comprised of 130 mM NaSCN, 2 mM MgCl2, 10 mM EGTA, 10 mM HEPES (pH = 7.4 with NaOH and osmolarity of ∼310 mosmol L^−1) and 10 mM glutamate. 50 mM WAY-213613 stock solutions were prepared in dimethyl sulfoxide (DMSO), followed by dilutions to working concentrations with the above-mentioned external buffer. […] Whole cell patch-clamp experiment recordings were made from isolated GFP-positive HEK293T cells (hEAAT2 wild type and mutants). In all, 3–6 MΩ was used to fire a polished pipette (Sutter Instrument). […] Cells were immersed in the above-mentioned external buffer supplemented with a specified concentration of glutamate or WAY-213613. Glutamate-induced anion current, Na^+-dependent anion leak current and glutamate transport current or WAY-213613 inhibited anion leak currents were recorded using an EPC-10 amplifier (HEKA Electronic) at a 20 kHz sample rate with low pass filter at 5 kHz. All experiments were executed at 0 mV. After the cell current was stabilized, glutamate or WAY-213613 was sustained at the indicated concentrations from external dosing for at least 6 s. Subsequently, the cell was washed away with external buffer to start a new round of applications or end the experiment. The plateau currents were used for the following calculations. For analysis, the data was acquired by PatchMaster program (HEKA Electronic) at 5 s after recording. Nonlinear dose–response relationships were fitted into a Michaelis–Menten-like equation shown as below to obtain the apparent Km and Ki values in the presence of glutamate or WAY-213613.1 I/Imax=Km/i/C+Km/i In this equation, I represent the current at different glutamate or inhibitor concentrations, and Imax represents the maximal current at the saturating concentration of glutamate or inhibitor. [C] represents the concentration of glutamate or inhibitor. Km/i represents the apparent constant.

hEAAT2 mutant D475A = target: T2, hEAAT2 mutant D475A (Homo sapiens, UniProt P43004, D475A); assay: whole-cell patch-clamp, hEAAT2 mutant D475A in HEK293T cells; assay type: cell-based; details: 0 mV; for WAY-213613-inhibited current, normalized (MEAN): D475A
T2 construct: Strep Tag II (N); superfolder GFP (sfGFP) (N); expressed in transfected cells; host or cells: HEK293T
Protocol: as §1, §2

hEAAT2 mutant S441G = target: T3, hEAAT2 mutant S441G (Homo sapiens, UniProt P43004, S441G); assay: whole-cell patch-clamp, hEAAT2 mutant S441G in HEK293T cells; assay type: cell-based; details: 0 mV; for WAY-213613-inhibited current, normalized (MEAN): S441G
T3 construct: Strep Tag II (N); superfolder GFP (sfGFP) (N); expressed in transfected cells; host or cells: HEK293T
Protocol: as §1, §2

hEAAT2 mutant L467I = target: T4, hEAAT2 mutant L467I (Homo sapiens, UniProt P43004, L467I); assay: whole-cell patch-clamp, hEAAT2 mutant L467I in HEK293T cells; assay type: cell-based; details: 0 mV; for WAY-213613-inhibited current, normalized (MEAN): L467I
T4 construct: Strep Tag II (N); superfolder GFP (sfGFP) (N); expressed in transfected cells; host or cells: HEK293T
Protocol: as §1, §2

hEAAT2 = details: cited from earlier work
hEAAT1 = details: cited from earlier work
hEAAT3 = details: cited from earlier work
hEAAT2 mutant I464V = target: T5, hEAAT2 mutant I464V (Homo sapiens, UniProt P43004, I464V); assay: whole-cell patch-clamp, hEAAT2 mutant I464V in HEK293T cells; assay type: cell-based; details: 0 mV; for WAY-213613-inhibited current, normalized (MEAN): I464V
T5 construct: Strep Tag II (N); superfolder GFP (sfGFP) (N); expressed in transfected cells; host or cells: HEK293T
Protocol: as §1, §2

[1] = system: ionotropic and metabotropic glutamate receptors; details: sentence of earlier manuscript version quoted by reviewer; no reference given; cited from earlier work
hEAAT2 mutant V468I = target: T6, hEAAT2 mutant V468I (Homo sapiens, UniProt P43004, V468I); assay: whole-cell patch-clamp, hEAAT2 mutant V468I in HEK293T cells; assay type: cell-based; details: 0 mV; for WAY-213613-inhibited current, normalized (MEAN): V468I
T6 construct: Strep Tag II (N); superfolder GFP (sfGFP) (N); expressed in transfected cells; host or cells: HEK293T
Protocol: as §1, §2

[2] = 0.03 μM WAY-213613, normalized to current at 30 μM
[3] = 0.1 μM WAY-213613, normalized to current at 30 μM
[4] = 0.3 μM WAY-213613, normalized to current at 30 μM
[5] = 1 μM WAY-213613, normalized to current at 30 μM
[6] = 3 μM WAY-213613, normalized to current at 30 μM
[7] = 10 μM WAY-213613, normalized to current at 30 μM
[8] = 30 μM WAY-213613, normalization reference

T3 sequence (P43004 whole entry S441G): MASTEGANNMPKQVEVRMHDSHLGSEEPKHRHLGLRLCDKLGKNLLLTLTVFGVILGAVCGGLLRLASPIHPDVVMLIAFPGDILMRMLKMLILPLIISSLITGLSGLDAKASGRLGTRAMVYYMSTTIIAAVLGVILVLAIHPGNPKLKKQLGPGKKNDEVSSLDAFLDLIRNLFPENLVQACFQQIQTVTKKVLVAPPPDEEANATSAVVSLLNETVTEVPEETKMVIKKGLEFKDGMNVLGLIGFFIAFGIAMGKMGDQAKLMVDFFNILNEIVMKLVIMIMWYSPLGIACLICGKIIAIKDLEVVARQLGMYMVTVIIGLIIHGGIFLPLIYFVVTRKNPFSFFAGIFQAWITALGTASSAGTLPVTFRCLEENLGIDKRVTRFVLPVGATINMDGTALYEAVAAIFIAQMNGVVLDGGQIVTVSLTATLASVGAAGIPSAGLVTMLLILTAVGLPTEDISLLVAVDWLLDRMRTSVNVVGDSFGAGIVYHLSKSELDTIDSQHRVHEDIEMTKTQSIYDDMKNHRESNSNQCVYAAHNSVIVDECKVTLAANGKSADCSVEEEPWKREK
T6 sequence (P43004 whole entry V468I): as the sequence (P43004 whole entry S441G) above, with G441S, V468I counted along it
T2 sequence (P43004 whole entry D475A): as the sequence (P43004 whole entry S441G) above, with G441S, D475A counted along it
T4 sequence (P43004 whole entry L467I): as the sequence (P43004 whole entry S441G) above, with G441S, L467I counted along it
T5 sequence (P43004 whole entry I464V): as the sequence (P43004 whole entry S441G) above, with G441S, I464V counted along it
T1 sequence (P43004 whole entry, the tested form may be a part): as the sequence (P43004 whole entry S441G) above, with G441S counted along it

NC(CC(=O)Nc1ccc(Oc2cc(F)c(F)cc2Br)cc1)C(=O)O (stereo not drawn) [WAY-213613]
WAY-213613-inhibited current, normalized (MEAN) (wild-type hEAAT2; 0.01 μM WAY-213613, 0 mV, normalized to current at 30 μM WAY-213613): 0.1531
WAY-213613-inhibited current, normalized (MEAN) (wild-type hEAAT2; 0.03 μM WAY-213613, 0 mV, normalized to current at 30 μM WAY-213613): 0.3093
WAY-213613-inhibited current, normalized (MEAN) (wild-type hEAAT2; 0.1 μM WAY-213613, 0 mV, normalized to current at 30 μM WAY-213613): 0.5406
WAY-213613-inhibited current, normalized (MEAN) (wild-type hEAAT2; 0.3 μM WAY-213613, 0 mV, normalized to current at 30 μM WAY-213613): 0.7864
WAY-213613-inhibited current, normalized (MEAN) (wild-type hEAAT2; 1 μM WAY-213613, 0 mV, normalized to current at 30 μM WAY-213613): 0.9254
WAY-213613-inhibited current, normalized (MEAN) (wild-type hEAAT2; 3 μM WAY-213613, 0 mV, normalized to current at 30 μM WAY-213613): 0.9686
WAY-213613-inhibited current, normalized (MEAN) (wild-type hEAAT2; 30 μM WAY-213613, 0 mV, normalization reference): 1
effect of inhibitor on anion leak conductance (wild-type hEAAT2; wild-type hEAAT2): block the anion leak conductance
Ki (wild-type hEAAT2; wild-type hEAAT2, HEK293T, 0 mV, Michaelis-Menten-like fit, read-out: apparent Ki (inhibition of anion leak current)): 70 ± 30 nM
WAY-213613-inhibited current, normalized (MEAN) (hEAAT2 mutant D475A; 0.3 μM WAY-213613, normalized to current at 100 μM): 0.06104
WAY-213613-inhibited current, normalized (MEAN) (hEAAT2 mutant D475A; 1 μM WAY-213613, normalized to current at 100 μM): 0.08742
WAY-213613-inhibited current, normalized (MEAN) (hEAAT2 mutant D475A; 3 μM WAY-213613, normalized to current at 100 μM): 0.1387
WAY-213613-inhibited current, normalized (MEAN) (hEAAT2 mutant D475A; 10 μM WAY-213613, normalized to current at 100 μM): 0.2967
WAY-213613-inhibited current, normalized (MEAN) (hEAAT2 mutant D475A; 30 μM WAY-213613, normalized to current at 100 μM): 0.647
WAY-213613-inhibited current, normalized (MEAN) (hEAAT2 mutant D475A; 100 μM WAY-213613, normalization reference): 1
Ki (hEAAT2 mutant D475A; D475A mutant, read-out: apparent Ki): 30500 nM
WAY-213613-inhibited current, normalized (MEAN) (hEAAT2 mutant S441G; [2]): 0.08476
WAY-213613-inhibited current, normalized (MEAN) (hEAAT2 mutant S441G; [3]): 0.2697
WAY-213613-inhibited current, normalized (MEAN) (hEAAT2 mutant S441G; [4]): 0.5414
WAY-213613-inhibited current, normalized (MEAN) (hEAAT2 mutant S441G; [5]): 0.7785
WAY-213613-inhibited current, normalized (MEAN) (hEAAT2 mutant S441G; [6]): 0.8947
WAY-213613-inhibited current, normalized (MEAN) (hEAAT2 mutant S441G; [7]): 0.9736
WAY-213613-inhibited current, normalized (MEAN) (hEAAT2 mutant S441G; [8]): 1
Ki (hEAAT2 mutant S441G; S441G mutant, read-out: apparent Ki): 260 nM
WAY-213613-inhibited current, normalized (MEAN) (hEAAT2 mutant L467I; [2]): 0.06992
WAY-213613-inhibited current, normalized (MEAN) (hEAAT2 mutant L467I; [3]): 0.1548
WAY-213613-inhibited current, normalized (MEAN) (hEAAT2 mutant L467I; [4]): 0.4253
WAY-213613-inhibited current, normalized (MEAN) (hEAAT2 mutant L467I; [5]): 0.7036
WAY-213613-inhibited current, normalized (MEAN) (hEAAT2 mutant L467I; [6]): 0.8764
WAY-213613-inhibited current, normalized (MEAN) (hEAAT2 mutant L467I; [7]): 1.001
WAY-213613-inhibited current, normalized (MEAN) (hEAAT2 mutant L467I; [8]): 1
Ki (hEAAT2 mutant L467I; L467I mutant, read-out: apparent Ki): ~460 nM and 464 nM
IC50 (hEAAT2): 85 nM
IC50 (hEAAT1; hEAAT1): 5000 nM
selectivity (affinity) for hEAAT2 over hEAAT1 (hEAAT1; hEAAT2 over hEAAT1): 59 fold
selectivity (affinity) for hEAAT2 over hEAAT3 (hEAAT3; hEAAT2 over hEAAT3): 44 fold
IC50 (hEAAT3; hEAAT3): 3800 nM
WAY-213613-inhibited current, normalized (MEAN) (hEAAT2 mutant I464V; [2]): 0.1438
WAY-213613-inhibited current, normalized (MEAN) (hEAAT2 mutant I464V; [3]): 0.3695
WAY-213613-inhibited current, normalized (MEAN) (hEAAT2 mutant I464V; [4]): 0.6353
WAY-213613-inhibited current, normalized (MEAN) (hEAAT2 mutant I464V; [5]): 0.8468
WAY-213613-inhibited current, normalized (MEAN) (hEAAT2 mutant I464V; [6]): 0.8861
WAY-213613-inhibited current, normalized (MEAN) (hEAAT2 mutant I464V; [7]): 0.98
WAY-213613-inhibited current, normalized (MEAN) (hEAAT2 mutant I464V; [8]): 1
Ki (hEAAT2 mutant I464V; I464V mutant, read-out: apparent Ki): ~170 nM and 166 nM
effect on ionotropic and metabotropic glutamate receptors [1]: no effect
WAY-213613-inhibited current, normalized (MEAN) (hEAAT2 mutant V468I; [2]): 0.136
WAY-213613-inhibited current, normalized (MEAN) (hEAAT2 mutant V468I; [3]): 0.3481
WAY-213613-inhibited current, normalized (MEAN) (hEAAT2 mutant V468I; [4]): 0.6012
WAY-213613-inhibited current, normalized (MEAN) (hEAAT2 mutant V468I; [5]): 0.8026
WAY-213613-inhibited current, normalized (MEAN) (hEAAT2 mutant V468I; [6]): 0.923
WAY-213613-inhibited current, normalized (MEAN) (hEAAT2 mutant V468I; [7]): 0.993
WAY-213613-inhibited current, normalized (MEAN) (hEAAT2 mutant V468I; [8]): 1
Ki (hEAAT2 mutant V468I; V468I mutant, read-out: apparent Ki): ~200 nM and 196 nM
